Structures are written as SMILES. Activity calls are given as the source filed them.

T1 sequence (P12931 2-536 limits assumed): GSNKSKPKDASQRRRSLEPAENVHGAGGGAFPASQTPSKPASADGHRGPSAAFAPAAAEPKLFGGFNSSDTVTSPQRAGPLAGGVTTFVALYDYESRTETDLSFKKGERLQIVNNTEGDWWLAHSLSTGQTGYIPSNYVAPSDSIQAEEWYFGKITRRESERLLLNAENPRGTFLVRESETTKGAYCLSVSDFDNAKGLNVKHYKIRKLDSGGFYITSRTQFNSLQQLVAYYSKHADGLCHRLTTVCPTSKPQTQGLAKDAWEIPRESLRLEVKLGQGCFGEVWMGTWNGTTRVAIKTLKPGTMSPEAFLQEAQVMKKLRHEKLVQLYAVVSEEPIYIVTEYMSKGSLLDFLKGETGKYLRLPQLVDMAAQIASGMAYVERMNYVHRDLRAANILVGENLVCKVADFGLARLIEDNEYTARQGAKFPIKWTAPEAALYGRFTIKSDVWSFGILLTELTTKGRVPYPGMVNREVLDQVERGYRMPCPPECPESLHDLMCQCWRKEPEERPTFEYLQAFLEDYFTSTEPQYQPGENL

One test concerns the target T1, Proto-oncogene tyrosine-protein kinase Src (Homo sapiens, UniProt P12931). Nature of the test: Inhibition of human purified recombinant pp60c-src tyrosine kinase.
Consider `O=C(Nc1cccc(O)c1)c1cc2cccc(O)c2cc1O`, for which the IC50 (usually the concentration needed to halve the response being measured) came out at 150 µM.

A further test addresses T1, Proto-oncogene tyrosine-protein kinase Src. Nature of the test: Inhibition of human purified recombinant p60 c-Src tyrosine kinase at 100 uM.
Take `Oc1cc(O)cc(/C=C/c2ccc(O)c(O)c2)c1`: the inhibition (usually the relative decrease from the control value, in per cent) was found to be 41%.

In the case of `O=C(NCc1ccccc1O)c1cc2cccc(O)c2cc1O`, the inhibition was 41%.

In the case of `O=C(NCc1ccc(O)cc1)c1cc2cccc(O)c2cc1O`, the inhibition amounted to 49%.

The next test has the same target. Nature of the test: Inhibition of human purified recombinant pp60c-src tyrosine kinase at 100 uM.
With `COC(=O)c1cc2cccc(O)c2cc1O`, the inhibition was found to be 5%.

For the compound `O=C(NCc1cccc(O)c1)c1cc2ccc(O)cc2cc1O`, the inhibition is 55%.

On to `O=C(Nc1cccc(O)c1)c1cc2ccc(O)cc2cc1O`, for which the inhibition stood at 89%.

Take `O=C(Nc1cccc(O)c1)c1ccc2cc(O)ccc2c1`: the inhibition was determined as 45%.

Consider `O=C(Nc1ccc(O)cc1O)c1cc2cccc(O)c2cc1O`, for which the inhibition amounted to 14%.

As to `COc1ccc(NC(=O)c2cc3cccc(O)c3cc2O)cc1`, the inhibition was 35%.

Regarding `COc1ccc(CNC(=O)c2cc3cccc(O)c3cc2O)cc1`, the inhibition was found to be 14%.

Take `O=C(NCc1ccc(O)cc1)c1cc2ccc(O)cc2cc1O`: the inhibition is 42%.

Consider `O=C(Nc1ccccc1O)c1cc2ccc(O)cc2cc1O`, for which the inhibition stood at 39%.

Turning to `COc1cccc(NC(=O)c2cc3cccc(O)c3cc2O)c1`, the inhibition stood at 33%.

In the case of `COC(=O)c1cc2ccc(O)cc2cc1O`, the inhibition worked out at 47%.

`O=C(Nc1cccc(O)c1)c1cc2cccc(O)c2cc1O`: the inhibition came to 51%.

With `O=C(Nc1ccc(O)cc1)c1cc2ccc(O)cc2cc1O`, the inhibition stood at 23%.

Take `Cc1cc(O)c2c(c1)C(=O)c1cc(O)cc(O)c1C2=O`: the inhibition was 22%.

On to `O=C(NCc1ccccc1O)c1cc2ccc(O)cc2cc1O`, for which the inhibition is 42%.

`O=C(Nc1ccccc1O)c1cc2cccc(O)c2cc1O`: the inhibition is 12%.

Take `COc1ccccc1CNC(=O)c1cc2cccc(O)c2cc1O`: the inhibition turned out to be 13%.

For a further test the target is unchanged. Nature of the test: nhibition of human purified recombinant pp60c-src tyrosine kinase at 100 uM (Inactive).
As to `COc1ccccc1CNC(=O)c1cc2ccc(O)cc2cc1O`, the inhibition entry was “inactive”.

Turning to `COC(=O)c1cc2ccccc2cc1N`, the inhibition entry was “inactive”.
